Results reported in patent publication US10363230B2, “6-shogaol derivatives and activities thereof” (North Carolina Agricultural and Technical State University, priority 2017, dated 2019).
Entries after “also recorded” stand apart in the source; their conditions may differ.

Experiments:
[1] = system: heme oxygenase-1 (HO-1); assay: Western blotting of HO-1 expression in CCD 841 CoN cells; type: cell-based, human
Description: Human normal colonic epithelial cells (CCD 841 CoN) were grown in Eagle's Minimum Essential Medium with 10% fetal bovine serum and 1% penicillin/streptomycin, and maintained at 37° C. in a 100% humidified atmosphere of 5% CO2 and 95% air. Fresh growth medium was added to the cells every two days until confluent. Cells were planted in 145×20 mm flat-bottomed tissue culture dishes and growth to 70-80% confluence and then treated with compound 27 for various doses and time points. At the end of incubation period, cell lysates were prepared in ice-cold Cell Lysis Buffer (Cell Signaling, Danvers, Mass., United States of America) with 1% protease inhibitor cocktail and 1% phenylmethylsulfonyl fluoride (Sigma, St. Louis, Mo., United States of America). Protein concentrations were measured using BCA Protein Assay Kit (Thermo Scientific, Rockford, Ill., United States of America). […] The bound complexes were detected with SuperSignal Chemiluminescent Substract (Thermo Scientific, Rockford, Ill., United States of America). The immunoblot bands were quantified by densitometry analysis, and the ratio to β-actin was calculated and presented.

[2] = Cysteine conjugates in mouse urine after oral gavage (LC/MS); type: in vivo; settings: oral gavage 200 mg/kg, urine collected in 24 h
Description: LC/MS analysis was carried out with a Thermo-Finnigan Spectra System, which consisted of an Accela high speed MS pump, an Accela refrigerated autosampler, and an LCQ Fleet ion trap mass detector (Thermo Electron, San Jose, Calif., United States of America) incorporated with an electrospray ionization (ESI) interface. A Gemini-NX C18 column (150 mm×4.6 mm i.d., 5 μm; Phenomenex, Torrance, Calif., United States of America) was used for separation at a flow rate of 0.3 mL/min. The column was eluted with 100% A (5% aqueous methanol with 0.2% formic acid) for 1 min, followed by linear increases in B (95% aqueous methanol with 0.2% formic acid) to 55% from 1 to 4 min, to 85% from 4 to 25 min, then to 100% B from 25 to 30 min, and then with 100% B from 30 to 35 min. The column was then re-equilibrated with 100% A for 5 min. The LC eluent was introduced into the ESI interface. The positive ion polarity mode was set for the ESI source with the voltage on the ESI interface maintained at approximately 4.6 kV. Nitrogen gas was used as the sheath gas and auxiliary gas. […] The mass range was measured from 100 to 800 m/z. […]
Enzymatic deconjugation of mouse urine was performed as described previously with slight modifications. […] The resulting suspension was centrifuged at 17,000 g for 5 min, and 10 μL of supernatant was analyzed directly by LC/MS.

[3] = Biotransformation of xenobiotics in zebrafish embryos (LC/MS); type: in vivo; settings: 5 μM in incubation medium, 8 hpf to 24 hpf
Description: Fifty zebrafish embryos at the 8 hour-post-fertilization (hpf) stage were incubated at 28.5° C. in 0.3× Danieau's solution (19.3 mM NaCl, 0.23 mM KCl, 0.13 mM MgSO4, 0.2 mM Ca(NO3)2, 1.7 mM HEPES, pH 7.0) with or without 5 μM 18 and 25-27, respectively. At 24 hpf, embryos were dechorionated manually and the chorions were carefully removed one by one from the culture medium. The zebrafish embryos were harvested and kept at −80° C. till analyzed by LC/MS.
200 μL Sodium acetate buffer solution (pH 5.0) was added to 50 zebrafish embryos. Samples were homogenized for 90 s by an Omni Bead Ruptor Homogenizer (Kennesaw, Ga., United States of America). 10 μL 10% ascorbic acid and 300 μL sodium acetate buffer were added to the homogenates. The mixture was incubated in the presence of β-glucuronidase (250 U) and sulfatase (3 U) at 37° C. for 45 min, and then 600 μL MeOH with 1% acetic acid was added. The resulting mixture was vortexed for 30 s and then centrifuged at 17000 g for 10 min. The supernatant was removed and evaporated under a gentle stream of nitrogen. The residue was reconstituted in 150 μL 90% MeOH with 0.2% acetic acid (AA), and 10 μL was analyzed directly by LC/MS.
LC/MS analysis was carried out with a Thermo-Finnigan Spectra System, which consisted of an Accela high speed MS pump, an Accela refrigerated autosampler, and an LCQ Fleet ion trap mass detector (Thermo Electron, San Jose, Calif., United States of America) incorporated with an electrospray ionization (ESI) interface. A Gemini-NX C18 column (150 mm×4.6 mm i.d., 5 μm; Phenomenex, Torrance, Calif., United States of America) was used for separation at a flow rate of 0.3 mL/min. The column was eluted with 100% A (5% aqueous methanol with 0.2% formic acid) for 1 min, followed by linear increases in B (95% aqueous methanol with 0.2% formic acid) to 55% from 1 to 4 min, to 85% from 4 to 25 min, then to 100% B from 25 to 30 min, and then with 100% B from 30 to 35 min. The column was then re-equilibrated with 100% A for 5 min. The LC eluent was introduced into the ESI interface. The positive ion polarity mode was set for the ESI source with the voltage on the ESI interface maintained at approximately 4.6 kV. Nitrogen gas was used as the sheath gas and auxiliary gas. Optimized source parameters, including capillary temperature (260° C.), sheath gas flow rate (31 arbitrary units), auxiliary gas flow rate (16 units), tube lens (34 V), and capillary voltage 9 V, were tuned using authentic samples. The collision-induced dissociation (CID) was conducted with an isolation width 2 Da and normalized collision energy of 35 for MS^2. The mass range was measured from 100 to 800 m/z. Data acquisition was performed with Xcalibur version 2.0 (Thermo Electron, San Jose, Calif., United States of America).

CCCCCCCC(=O)/C=C/c1ccc(O)c(O)c1 [Compound 27]
HO-1 protein expression, time dependence ([1]; CCD 841 CoN cells, 10 μM for 3, 6, 12 and 24 h, vs control, p<0.05 for all time points): significantly increased HO-1 expression; also recorded: increased HO-1 expression in a time-dependent manner
HO-1 protein expression, dose dependence ([1]; CCD 841 CoN cells, 5, 10 and 20 μM for 24 h, vs untreated control, p<0.05 for all concentrations): significantly increased HO-1 protein expression; also recorded: increased HO-1 expression in a dose-dependent manner
Cysteine conjugates (metabolites) detected in mouse urine [2]: conjugate 36 and its reduced form 36a, three additional conjugates 37, 37a, and 37b
Cysteine conjugates (metabolites) detected in zebrafish embryos [3]: four cysteine conjugates 36, 36a, 37, and 37b
